For series [1] the following is noted: human, 40000 µM.
Description: Solubility ratio ([HbS+drug (40 mM)]/[HbS-drug])
For series [2] the following is noted: human, 5000 µM.
Description: Solubility ratio ([HbS+drug (5 mM)]/[HbS-drug])
For series [3] the following is noted: human, 20000 µM.
Description: Solubility ratio ([HbS+drug (20 mM)]/[HbS-drug]
The conditions of series [4]: human, 10000 µM.

This note sets out measurements from ChEMBL document CHEMBL1122711, “Design, synthesis, and testing of potential antisickling agents. 4. Structure-activity relationships of benzyloxy and phenoxy acids” (J Med Chem, 1984).

As for `Nc1ccc(CSCC(=O)O)cc1`, the Solubility ratio in series [1] is recorded as 1.174; in series [2], 1.006; in series [3] it was 1.076; in series [4], 1.031.

Take `O=C(O)COc1cccc(Cl)c1Cl`: the Solubility ratio in series [1] worked out at 1.135; in series [2], 1.025; in series [3], 1.09; in series [4], 1.057.

Turning to `O=C(O)COc1ccc(Br)cc1`, the Solubility ratio in series [1] stood at 1.317; in series [2], 1.049; in series [3], 1.18; in series [4], 1.093.

As to `O=C(O)CSc1c(F)c(F)c(F)c(F)c1F`, the Solubility ratio in series [1] was 1.236; in series [2], 1.025; in series [3], 1.117; in series [4] it was 1.053.

Regarding `Cc1cc(Br)c(OCC(=O)O)c(Br)c1`, the Solubility ratio in series [1] turned out to be 1.284; in series [2] it was 1.077; in series [3] it was 1.139; in series [4], 1.043.

As for `Cc1ccc(COCC(=O)O)c(C)c1`, the Solubility ratio was found to be 1.325 in series [1], 1.05 in series [2], 1.163 in series [3] and 1.054 in series [4].

As for `O=C(O)COCc1ccc(I)cc1`, the Solubility ratio in series [1] is 1.35; in series [2] it was 1.039; in series [3], 1.236; in series [4], 1.09.

`O=C(O)COCc1cc(Cl)cc(Cl)c1`: the Solubility ratio was found to be 1.382 in series [1], 1.076 in series [2], 1.33 in series [3] and 1.149 in series [4].

For the compound `Cc1cc(C)cc(OCC(=O)O)c1`, the Solubility ratio is 1.31 in series [1], 1.035 in series [2], 1.141 in series [3] and 1.048 in series [4].

In the case of `Cc1cc(C)cc(COCC(=O)O)c1`, the Solubility ratio in series [1] came out at 1.315; in series [2], 1.01; in series [3], 1.129; in series [4] it was 1.031.

`Cc1cc(OCC(=O)O)cc(C)c1Br`: the Solubility ratio was 1.092 in series [1], 0.996 in series [2], 1.063 in series [3] and 1.004 in series [4].

In the case of `Cc1ccc(C)c(OCC(=O)O)c1`, the Solubility ratio in series [1] was 1.248; in series [2], 1.031; in series [3] it was 1.114; in series [4], 1.055.

As for `O=C(O)COc1ccc2c(c1)oc1ccccc12`, the Solubility ratio is 1.185 in series [1], 1.033 in series [2], 1.09 in series [3] and 1.054 in series [4].

In the case of `O=C(O)COCc1ccc(Oc2ccccc2)cc1`, the Solubility ratio worked out at 1.162 in series [1], 1.034 in series [2], 1.165 in series [3] and 1.088 in series [4].

For `O=C(O)COc1ccc2c(c1)Cc1ccccc1-2`, the Solubility ratio is 1.113 in series [1], 1.029 in series [2], 1.067 in series [3] and 1.042 in series [4].

For the compound `O=C(O)COCc1ccc(Cl)cc1`, the Solubility ratio in series [1] is on record as 1.396; in series [2] it was 1.065; in series [3], 1.206; in series [4], 1.104.

In the case of `COc1cc(OC)cc(OCC(=O)O)c1`, the Solubility ratio amounted to 1.232 in series [1], 1.03 in series [2], 1.12 in series [3] and 1.052 in series [4].

In the case of `O=C(O)COc1ccc(Cl)c(Cl)c1`, the Solubility ratio was found to be 1.339 in series [1], 1.061 in series [2], 1.234 in series [3] and 1.117 in series [4].

For `CC(C)(Oc1ccc(Cl)cc1)C(=O)Oc1ccccc1C(=O)O`, the Solubility ratio in series [1] came out at 1.109; in series [2], 1.022; in series [3], 1.153; in series [4], 1.044.

Turning to `Cc1ccc(COCC(=O)O)cc1C`, the Solubility ratio in series [1] was found to be 1.289; in series [2], 1.06; in series [3], 1.142; in series [4], 1.086.

`COc1cc(OCC(=O)O)cc(OC)c1OC`: the Solubility ratio in series [1] worked out at 1.047; in series [2], 0.987; in series [3], 1.015; in series [4], 1.013.

`Cc1ccc(COCC(=O)O)cc1`: the Solubility ratio in series [1] was 1.304; in series [2] it was 1.017; in series [3], 1.137; in series [4], 1.059.

Turning to `O=C(O)CSc1cc(Cl)c(Cl)cc1Cl`, the Solubility ratio in series [1] stood at 1.12; in series [2], 1.018; in series [3], 1.07; in series [4], 1.032.

Regarding `O=C(O)COc1ccc([N+](=O)[O-])cc1`, the Solubility ratio in series [1] is listed as 1.344; in series [2], 0.983; in series [3], 1.329; in series [4], 1.043.

On to `O=C(O)CSc1ccc(Br)cc1`, for which the Solubility ratio amounted to 1.261 in series [1], 1.023 in series [2], 1.113 in series [3] and 1.063 in series [4].

As for `CSc1ccc(OCC(=O)O)cc1`, the Solubility ratio in series [1] was found to be 1.223; in series [2], 1.035; in series [3], 1.16; in series [4] it was 1.027.

For the compound `Cc1cc(OCC(=O)O)ccc1Cl`, the Solubility ratio in series [1] came to 1.275; in series [2], 1.05; in series [3], 1.171; in series [4] it was 1.08.

Regarding `O=C(O)COc1ccc2c(c1)CCC2`, the Solubility ratio in series [1] was found to be 1.322; in series [2], 1.054; in series [3], 1.247; in series [4], 1.134.

Take `O=C(O)COc1ccc(Cl)cc1`: the Solubility ratio is 1.287 in series [1], 1.04 in series [2], 1.163 in series [3] and 1.08 in series [4].

Take `O=C(O)CSCc1ccc(Br)cc1`: the Solubility ratio is recorded as 1.307 in series [1], 1.024 in series [2], 1.131 in series [3] and 1.053 in series [4].

Consider `O=C(O)CCOCc1ccc(Cl)c(Cl)c1`, for which the Solubility ratio in series [1] was determined as 1.395; in series [2] it was 1.062; in series [3], 1.305; in series [4], 1.142.

`O=C(O)COCc1ccc(Cl)c(Cl)c1`: the Solubility ratio in series [1] turned out to be 1.32; in series [2] it was 1.083; in series [3], 1.309; in series [4] it was 1.162.

`COc1cc(Cl)ccc1COCC(=O)O`: the Solubility ratio is reported as 1.311 in series [1], 1.062 in series [2], 1.233 in series [3] and 1.121 in series [4].

Take `COc1ccc(COCC(=O)O)cc1`: the Solubility ratio in series [1] was 1.149; in series [2], 0.996; in series [3] it was 1.054; in series [4], 1.012.

As to `O=C(O)COc1ccc(I)cc1`, the Solubility ratio was found to be 1.176 in series [1], 1.04 in series [2], 1.09 in series [3] and 1.046 in series [4].

`C=CCc1ccc(OCC(=O)O)c(OC)c1`: the Solubility ratio in series [1] turned out to be 1.245; in series [2] it was 1.033; in series [3], 1.141; in series [4], 1.043.

For the compound `Cc1cc(C)c(COCC(=O)O)c(C)c1`, the Solubility ratio in series [1] is 1.31; in series [2], 1.031; in series [3], 1.163; in series [4], 1.054.

In the case of `COc1cc(COCC(=O)O)ccc1C`, the Solubility ratio was determined as 1.248 in series [1], 1.034 in series [2], 1.145 in series [3] and 1.081 in series [4].

On to `Nc1ccc(OCC(=O)O)cc1`, for which the Solubility ratio in series [1] worked out at 1.145; in series [2], 1; in series [3], 1.113; in series [4], 1.01.

Consider `O=C(O)C(CCOc1ccc(Br)cc1)C(=O)O`, for which the Solubility ratio in series [1] came to 1.36; in series [2] it was 1.057; in series [3], 1.323; in series [4], 1.134.

In the case of `O=C(O)CSc1ccc(Cl)cc1`, the Solubility ratio is 1.296 in series [1], 1.026 in series [2], 1.168 in series [3] and 1.069 in series [4].

As to `COc1cccc(OCC(=O)O)c1OC`, the Solubility ratio in series [1] stood at 1.144; in series [2], 1.017; in series [3], 1.064; in series [4], 1.036.

In the case of `O=C(O)COC(c1ccccc1)c1ccc(Cl)cc1` (centres undefined), the Solubility ratio turned out to be 1.25 in series [1], 1.002 in series [2], 1.103 in series [3] and 1.032 in series [4].

For `CC(C)(C)c1ccc(OCC(=O)O)cc1`, the Solubility ratio in series [2] is 1.004; in series [3], 1.058; in series [4] it was 1.012.

As to `O=C(O)COCc1ccc(Br)cc1`, the Solubility ratio is listed as 1.398 in series [1], 1.059 in series [2], 1.233 in series [3] and 1.118 in series [4].
